Results reported in patent EP4678639A1, “SALT OF BENZIMIDAZOLE DERIVATIVE” (JW Pharmaceutical Corporation, priority 2023, dated 2024).
Counter-ions that a name gives are not always drawn.

Experiments:
[1] = Raw material stability test versus tegoprazan freebase (60 °C or 90 % RH); format: physicochemical
[2] = Solid-state accelerated stability test (40 ± 2 °C/RH 75 ± 5 %)
[3] = Stability test by formulation (tablets and orally disintegrating tablets, 60 °C or 90 % RH); format: physicochemical; conditions: tablets and orally disintegrating tablets prepared with the named salt, versus reference drug
Method: The amount of total related substances under stress storage conditions (temperature/humidity) was measured using liquid chromatography (HPLC) using an Infinity 1260 (Agilent) equipment. The analysis conditions are as follows.
To minimize the influence of additives, each test formulation was selected with the same additives as the reference drug (K-CAB tablets 50 mg, K-CAB orally disintegrating tablets 50 mg) disclosed in the Ministry of Food and Drug Safety Pharmaceutical Integrated Information System, and to minimize differences due to the granule manufacturing process, the formulation was prepared using the simple mixing (direct compression) method. Each formulation was as shown in Tables 16 and 17 below, and the stability conditions were conducted for each formulation under the storage conditions of 60 °C, which is a stress temperature condition, and 90 % RH, which is a stress humidity condition, respectively.
Stability tests were conducted under stress storage conditions (temperature/humidity) for each formulation. The results of measuring the amount of total related substances after storage under stress conditions for 1 week or 3 weeks are shown in FIG. 18 and FIG. 19.

[4] = Photostability test, ultraviolet light (200 W·hr/m2) exposure
[5] = Photostability test, visible light (1.2 Mlux·hr) exposure
Method: A photostability comparative test was conducted on each of the above-mentioned prepared tegoprazan acid addition salts. The test was conducted by exposing the sample to light with an energy of 200 W hr/m^2 of ultraviolet light and 1.2 Mlux hr of visible light in accordance with The International Council for Harmonisation of Technical Requirements for Pharmaceuticals for Human Use (ICH) guideline, with the samples packaged in a single PE bag and spread thinly enough to ensure exposure to the light source, taking humidity stability into consideration. The purity of the acid addition salts and the change in the amount of degradants at the initial time point and after exposure to ultraviolet light or visible light were measured by HPLC.

[6] = Solid-state stress stability test (humidity 90 % RH)
Method: (§1) Operation and Calculation: The blank solution, standard solution, and test solution were sequentially tested under the instrument operating conditions according to the liquid chromatography method in the General Test Methods of the 12th Edition of the Korean Pharmacopoeia, and the amount of related substances was calculated using the following equation. Amount of each related; substance (%) = (AT)/(AS) × (CS)/(CT) × (Molecular weight; of the sample)/(Molecular weight; of the standard; product) × P × (1)/(RR; F) [formula] AT = Area of each related substance peak obtained from the test solution AS = Area of the tegoprazan peak obtained from the standard solution CS = Concentration of standard solution (mg/mL) CT = Concentration of test solution (mg/mL) P = Purity/Assay/Potency (%) of standard product RRF = Relative response factor (1.0)
(§2) A solid-state stability comparative test was conducted on each of the above-mentioned prepared tegoprazan acid addition salts. The stability comparative test was conducted for 1 month under the conditions shown in Table 6 below in accordance with The International Council for Harmonisation of Technical Requirements for Pharmaceuticals for Human Use (ICH) guideline, and the purity of the acid addition salt, total related substances, and the content of degradants were measured by HPLC at the initial time point and after 1 month. Total related substances and degradants were measured according to the related substance test method (HPLC).
3) Stress Stability (humidity 90 % RH)

[7] = Solid-state stress stability test (temperature 60 °C)
Method: as §1, §2
2) Stress Stability Test (temperature 60 °C)

[8] = Liquid stability comparative test (20 mg/mL in purified water, 40 °C, 24 hours, HPLC); format: physicochemical
Method: The analysis conditions are as follows.
Each sample was dissolved in purified water to prepare a solution with a concentration of 20 mg/mL, stored at an external temperature of 40 °C, and analyzed by HPLC at the initial time point and after 24 hours to measure purity, and the change in the generated degradant (Formula 4) was measured. The analysis of total related substances and degradants was performed by taking a liquid from a solution prepared at a concentration of 20 mg/mL, diluting it to a concentration of 4 mg/mL with the diluent of the related substance test method (HPLC), and measuring it as a test solution, and analyzing it according to the related substance test method (HPLC).

[9] = 40 ± 2 °C / RH 75 ± 5 %, 1 month
[10] = Table 10, UV 200 W·hr/m2, PE bag
[11] = Table 11 under heading Visible Light (1.2 Mlux-hr) Exposure Test

Cc1nc2c(O[C@H]3CCOc4cc(F)cc(F)c43)cc(C(=O)N(C)C)cc2[nH]1 [Methanesulfonate Salt (Crystalline Form)]
change in appearance, 60 °C ([1]; 60 °C, 3 weeks): No change in appearance | change in appearance, 90 % RH ([1]; 90 % RH, 3 weeks): Dissolved to transparency | change in appearance, Initial ([1]; initial): No change in appearance | amount of total related substances generated (FIG. 13) ([1]; stress temperature/humidity storage, compared to tegoprazan freebase): significantly increased | After 1 Month (%) Degradant [2, 9]: 0.518% | After 1 Month (%) Total Related substances [2, 9]: 0.727% | Change (%) Degradant ([2]; 40 ± 2 °C / RH 75 ± 5 %, 1 month vs initial): 0.396% | Initial (%) Total Related substances ([2]; Table 7, initial): 0.265% | Initial (%) Degradant ([2]; Table 7, initial, degradant of Formula 4): 0.122% | Change in Quality (%) Accelerated (4 weeks) Degradant ([2]; Table 12 summary): 0.396% | Change in Quality (%) Accelerated (4 weeks) Purity ([2]; Table 12 summary): -0.462% | increase in total related substances after 1 month ([2]; accelerated stability): ≥ 0.3% | amount of total related substances generated (FIGS. 18 and 19) ([3]; 60 °C or 90 % RH, 1 or 3 weeks): significantly increased | degree of weight gain (FIG. 17) ([3]; 90 % RH, 3 weeks): greater | After Ultraviolet Light Exposure (200 W hr/m2)(%) Degradant [4, 10]: 0.168% | After Ultraviolet Light Exposure (200 W hr/m2)(%) Total Related substances [4, 10]: 0.339% | Change (%) Degradant ([4]; Table 10, after UV exposure vs initial): 0.046% | Initial (%) Degradant ([4]; Table 10, initial): 0.122% | Initial (%) Total Related substances ([4]; Table 10, initial): 0.265% | Change in Quality (%) Light (Ultraviolet) Degradant ([4]; Table 12 summary): 0.046% | Change in Quality (%) Light (Ultraviolet) Purity ([4]; Table 12 summary): 0.074% | Change (%) Degradant ([5]; Table 11, after exposure vs initial): 0.086% | Initial (%) Degradant ([5]; Table 11, initial): 0.122% | Initial (%) Total Related substances ([5]; Table 11, initial): 0.265% | After (%) Degradant [5, 11]: 0.208% | After (%) Total Related substances [5, 11]: 0.412% | Change in Quality (%) Light (Visible) Degradant ([5]; Table 12 summary): 0.086% | absorb moisture and deliquesce / melted ([6]; 90 % RH): absorb moisture and deliquesce | Remarks ([6]; 90 % RH, 1 month, state of the solid): Melted | Initial (%) Degradant ([6]; Table 9, initial): 0.122% | Initial (%) Total Related substances ([6]; Table 9, initial): 0.265% | Change in Quality (%) 90 % RH (4 weeks) Degradant ([6]; Table 12 summary): Melted | Change in Quality (%) 90 % RH (4 weeks) Purity ([6]; Table 12 summary): Melted | total related substances increased after 1 month ([7]; 60 °C): ≥ 5.0% | After 1 Month (%) Degradant ([7]; 60 °C, 1 month): 4.167% | After 1 Month (%) Total Related substances ([7]; 60 °C, 1 month): 5.408% | change in appearance, change in the color of the solid ([7]; 60 °C, 1 month): change in appearance | Change (%) Degradant ([7]; 60 °C, 1 month vs initial): 4.045% | Remarks ([7]; 60 °C, 1 month, appearance): Discolorat ion | Initial (%) Degradant ([7]; Table 8, initial): 0.122% | Initial (%) Total Related substances ([7]; Table 8, initial): 0.265% | Change in Quality (%) 60 °C (4 weeks) Degradant ([7]; Table 12 summary): 4.045% | Change in Quality (%) 60 °C (4 weeks) Purity ([7]; Table 12 summary): -5.143% | 60 °C (4 weeks) appearance remark ([7]; Table 12 summary, remark in brackets under the 60 °C columns): (Discoloration) | After 24 hours Purity (%) ([8]; 20 mg/mL in purified water, 40 °C, 24 hours): 99.47% | Initial Purity (%) ([8]; 20 mg/mL in purified water, initial time point): 99.95% | After 24 hours Degradant (%) ([8]; degradant of Formula 4, 20 mg/mL in purified water, 40 °C, 24 hours): 0.446% | Initial Degradant (%) ([8]; degradant of Formula 4, 20 mg/mL in purified water, initial time point): 0.028% | Amount of Change Degradant (%) ([8]; initial vs after 24 hours at 40 °C): 0.42% | increase in degradants (degradant of Formula 4) ([8]; liquid stability, 40 °C, 24 hours): ≤ 0.5%
